Counter-ions that a name gives are not always drawn. Like-named read-outs stand apart in the source and are kept apart here. Values belong to the compound of their own block, whether it stands above or below them.
Key:
[1] = Relaxing efficiency (% RE) of hair swatch after treatment, 24 hours at 90% RH
Protocol: A naturally kinky hair swatch was relaxed using a composition comprising at least one hydroxide composition comprising at least one hydroxide compound and at least one activating composition comprising at least one complexing agent according to the present invention. The relaxed hair swatch was then rinsed, shampooed, and then placed in the humidity chamber at 90% Relative Humidity (% RH) for 24 hours. The percent Relaxing Efficiency (% RE) is defined as:
Lf=length of the relaxed hair after 24 hours at 90% RH
Lt=length of the hair at the straight configuration
This mucic acid sodium salt slurry was mixed with 6 g of a 7% calcium hydroxide cream. The calcium hydroxide cream contained the following ingredients by weight, relative to the total weight of the cream:
The mixture of mucic acid sodium salt slurry and calcium hydroxide cream was applied to naturally kinky hair for 30 minutes. The treated hair was shampooed and then placed in a humidity chamber at 90% RH for 24 hours.

Solubility = assay type: physicochemical
[2] = for Appearance / pH: 3 g VERSENE 220 in 97 g water
Protocol: The present invention also provides for a simple screening test, which may be used to determine the applicability of a complexing agent for use as the at least one complexing agent in the lanthionizing compositions of the present invention.
A screening test to determine the applicability of a complexing agent for use in the lanthionizing compositions of the present invention was carried out.

[3] = Generation of hydroxide ions from mucic acid sodium salt slurry and calcium hydroxide (pH measurement); assay type: physicochemical; details: 7 g mucic acid + 2.66 g sodium hydroxide slurry
Protocol: An incremental amount of calcium hydroxide was then added slowly to the slurry of mucic acid sodium salt, and the pH was measured.

solubility in organic solvents (Solubility; most organic solvents, for example alcohols and ethers): insoluble
solubility in water (salt form) (Solubility; water at high pH): about 0.7%
SMILES: O=C(O)C(O)C(O)C(O)C(O)C(=O)O (stereo not shown) [Mucic Acid, 1,2,3,4-tetrahydroxy-1,4-butane dicarboxylic acid]
% RE ([1]; curly hair, 6 g 7% calcium hydroxide cream, 1:0.7 molar ratio calcium hydroxide:mucic acid, 2 g water in mucic acid salt slurry): 42%
% RE ([1]; curly hair, 6 g 7% calcium hydroxide cream, 1:0.7 molar ratio calcium hydroxide:mucic acid, 3 g water in mucic acid salt slurry): 88%
% RE ([1]; curly hair, 6 g 7% calcium hydroxide cream, 1:0.7 molar ratio calcium hydroxide:mucic acid, 4 g water in mucic acid salt slurry): 95%
% RE ([1]; curly hair, 6 g 7% calcium hydroxide cream, 1:0.7 molar ratio calcium hydroxide:mucic acid, 5 g water in mucic acid salt slurry): 98%
% RE ([1]; curly hair, 6 g 7% calcium hydroxide cream, 1:0.7 molar ratio calcium hydroxide:mucic acid, 6 g water in mucic acid salt slurry): 99%
% RE ([1]; naturally kinky hair, 30 minutes, 6 g 7% Ca(OH)2 cream, 0.36 g mucic acid, 0.27 g 50% NaOH, 3 g water, molar ratio calcium hydroxide:mucic acid 1:0.3): 54%
% RE ([1]; naturally kinky hair, 30 minutes, 6 g 7% Ca(OH)2 cream, 0.48 g mucic acid, 0.37 g 50% NaOH, 3 g water, molar ratio calcium hydroxide:mucic acid 1:0.4): 81%
% RE ([1]; naturally kinky hair, 30 minutes, 6 g 7% Ca(OH)2 cream, 0.60 g mucic acid, 0.46 g 50% NaOH, 3 g water, molar ratio calcium hydroxide:mucic acid 1:0.5): 80%
% RE ([1]; naturally kinky hair, 30 minutes, 6 g 7% Ca(OH)2 cream, 0.84 g mucic acid, 0.64 g 50% NaOH, 3 g water, molar ratio calcium hydroxide:mucic acid 1:0.7): 86%
% RE ([1]; naturally kinky hair, 30 minutes, 6 g 7% Ca(OH)2 cream, 1.19 g mucic acid, 0.9 g 50% NaOH, 3 g water, molar ratio calcium hydroxide:mucic acid 1:1): 21%

SMILES: O=C([O-])CN(CCN(CC(=O)[O-])CC(=O)[O-])CC(=O)[O-].[Na+].[Na+].[Na+].[Na+] [Na4EDTA, tetrasodium EDTA]
amount of Ca(OH)2 dissolved in the solution at the end of the reaction ([2]; 3 g VERSENE 220 (0.0066 moles) in 97 g water): 0.60 g
Appearance ([2]; 0 g Ca(OH)2 added): Clear
pH ([2]; 0 g Ca(OH)2 added): 11.62
Appearance ([2]; 0.20 g Ca(OH)2 added): Clear
pH ([2]; 0.20 g Ca(OH)2 added): 13.32
Appearance ([2]; 0.40 g Ca(OH)2 added): Clear
pH ([2]; 0.40 g Ca(OH)2 added): 13.52
Appearance ([2]; 0.60 g Ca(OH)2 added): Clear
pH ([2]; 0.60 g Ca(OH)2 added): 13.59
Appearance ([2]; 0.65 g Ca(OH)2 added): Cloudy
pH ([2]; 0.65 g Ca(OH)2 added): 13.63

pH ([3]; 0.0 g calcium hydroxide added): 12.39
pH ([3]; 0.2 g calcium hydroxide added): 13.02
pH ([3]; 0.4 g calcium hydroxide added): 13.32
pH ([3]; 0.6 g calcium hydroxide added): 13.46
pH ([3]; 0.8 g calcium hydroxide added): 13.51
pH ([3]; 1.0 g calcium hydroxide added): 13.53
pH ([3]; 1.2 g calcium hydroxide added): 13.55
observation upon mixing with calcium hydroxide (Solubility; mucic acid sodium salt mixed with calcium hydroxide): precipitation was observed
SMILES: O=C(O)[C@@H](O)[C@H](O)[C@H](O)[C@@H](O)C(=O)O [mucic acid sodium salt]
